The values that follow are results of earlier work, collected in US11235084B2, “Embolic microspheres” (Varian Medical Systems, Inc., priority 2017, dated 2022).

In the case of `CC(C)(CO)NCC(O)CS(=O)(=O)O` (centres unmarked) [AMPSO, N-(1,1-dimethyl-2-hydroxyethyl)-3-amino-2-hydroxypropanesulfonic acid], the “reported pKa values at 25° C.” value was 9.1. As to `NCC(=O)NCC(=O)O` [glycylglycine], the “reported pKa values at 25° C.” value is listed as 8.3. On to `O=S(=O)(O)CCCNC1CCCCC1` [CAPS, 3-(cyclohexylamino)-1-propanesulfonic acid], for which the “reported pKa values at 25° C.” value was 10.5.

For `CCN1CCOCC1` [N-ethylmorpholine], the “reported pKa values at 25° C.” value is reported as 7.8. Regarding `O=S(=O)(O)CCNC1CCCCC1` [CHES, 2-(cyclohexylamino)-1-ethanesulfonic acid], the “reported pKa values at 25° C.” value was 9.4.
